Experimental findings from patent US6127396A, “Imidazoline compounds” (Adir et Compagnie, priority 1998, dated 2000) are described below.

Holding throughout (type): binding
Experiment [1] addresses T1, noradrenaline reuptake sites (Rattus norvegicus, UniProt Q63380).
T1 construct: The membranes are prepared from the frontal cortex of the rat; from tissue; host or cells: rat frontal cortex membranes
The experiment is described as follows: Affinity for noradrenaline reuptake sites in the rat, competition with [3H]-nisoxetine. To be noted: rat frontal cortex membranes, 2 nM [3H]-nisoxetine, 4 hours at 4° C. How it is done:
Determination of the Affinity for Noradrenaline Reuptake Sites in the Rat
The affinity was determined by competition experiments using [^3 H]-nisoxetine. The membranes are prepared from the frontal cortex of the rat and are incubated in triplicate with 2 nM [^3 H]-nisoxetine and the compound being tested in a final volume of 0.5 ml, for 4 hours at 4° C. The incubation buffer contains 50 mM TRIS-HCl (pH 7.4), 120 mM NaCl and 5 mM KCl. The non-specific binding is determined using 10 μM desipramine.
(§1) At the end of the incubation, the incubation medium is filtered through WHATMAN GF/B filters impregnated with 0.1% of polyethylenimine and washed three times with 5 ml of cooled buffer. The radioactivity retained on the filters is determined by liquid scintillation counting. The binding isotherms are analysed by non-linear regression.

For experiment [2], the target named is T2, serotonin reuptake sites (Rattus norvegicus, UniProt P31652).
T2 construct: The membranes are prepared from the frontal cortex of the rat; from tissue; host or cells: rat frontal cortex membranes
As to the kind of experiment: Affinity for serotonin reuptake sites in the rat, competition with [3H]-paroxetine. The settings on record: rat frontal cortex membranes, 0.25 nM [3H]-paroxetine, 2 hours at 25° C. The procedure:
Determination of the Affinity for Serotonin Reuptake Sites in the Rat
The affinity was determined by competition experiments using [^3 H]-paroxetine. The membranes are prepared from the frontal cortex of the rat and are incubated in triplicate with 0.25 nM [^3 H]-paroxetine and the compound being tested in a final volume of 0.4 ml, for 2 hours at 25° C. The incubation buffer contains 50 mM TRIS-HCl (pH 7.4), 120 mM NaCl and 5 mM KCN. The non-specific binding is determined using 10 μM citalopram.
as §1

Experiment [3] concerns the target α2-adrenergic receptors. As to the kind of experiment: Affinity for α2-adrenergic receptors in the rat, competition with [3H]-RX 821,002. The settings on record: rat cerebral cortex membranes, 0.4 nM [3H]-RX 821,002, 60 minutes at 22° C. The procedure: Determination of the Affinity for α2 -adrenergic Receptors in the Rat
The affinity was determined by competition experiments with [^3 H]-RX 821,002. The membranes are prepared from the cerebral cortex of the rat and are incubated in triplicate with 0.4 nM [^3 H]-RX 821,002 and the compound being tested in a final volume of 1.0 ml, for 60 minutes at 22° C. The incubation buffer contains […] TRIS-HCl (pH 7.5), 1 mM EDTA and 100 μM GppNHp. The non-specific binding is determined using 10 μM phentolamine.
as §1

In general, Ki refers to a measure of affinity in units of concentration, obtained from inhibition or displacement. High values mean weaker binding, low ones tighter binding. As a reminder, the pKi is −log10 of the Ki, conventionally taken in molar units. A high value points to a small Ki.

Each structure is given as a SMILES string. Structures can show the parent of a compound that is named as a salt.

T2 sequence (P31652 whole entry): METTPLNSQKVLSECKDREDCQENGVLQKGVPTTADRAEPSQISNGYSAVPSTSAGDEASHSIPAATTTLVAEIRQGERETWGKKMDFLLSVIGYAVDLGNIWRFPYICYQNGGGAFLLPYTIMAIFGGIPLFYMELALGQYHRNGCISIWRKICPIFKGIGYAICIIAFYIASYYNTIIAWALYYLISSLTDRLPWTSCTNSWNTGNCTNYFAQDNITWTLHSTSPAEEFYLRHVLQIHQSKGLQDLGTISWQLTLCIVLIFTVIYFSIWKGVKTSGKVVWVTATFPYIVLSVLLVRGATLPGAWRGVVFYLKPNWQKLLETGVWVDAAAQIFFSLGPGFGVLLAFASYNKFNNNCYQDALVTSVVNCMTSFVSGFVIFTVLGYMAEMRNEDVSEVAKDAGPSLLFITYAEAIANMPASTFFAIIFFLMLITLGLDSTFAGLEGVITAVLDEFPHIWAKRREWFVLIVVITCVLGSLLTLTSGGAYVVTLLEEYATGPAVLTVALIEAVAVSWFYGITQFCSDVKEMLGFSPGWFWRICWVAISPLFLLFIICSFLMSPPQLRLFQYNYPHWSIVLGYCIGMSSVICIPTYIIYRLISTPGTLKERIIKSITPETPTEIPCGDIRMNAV
T1 sequence (Q63380 1-617): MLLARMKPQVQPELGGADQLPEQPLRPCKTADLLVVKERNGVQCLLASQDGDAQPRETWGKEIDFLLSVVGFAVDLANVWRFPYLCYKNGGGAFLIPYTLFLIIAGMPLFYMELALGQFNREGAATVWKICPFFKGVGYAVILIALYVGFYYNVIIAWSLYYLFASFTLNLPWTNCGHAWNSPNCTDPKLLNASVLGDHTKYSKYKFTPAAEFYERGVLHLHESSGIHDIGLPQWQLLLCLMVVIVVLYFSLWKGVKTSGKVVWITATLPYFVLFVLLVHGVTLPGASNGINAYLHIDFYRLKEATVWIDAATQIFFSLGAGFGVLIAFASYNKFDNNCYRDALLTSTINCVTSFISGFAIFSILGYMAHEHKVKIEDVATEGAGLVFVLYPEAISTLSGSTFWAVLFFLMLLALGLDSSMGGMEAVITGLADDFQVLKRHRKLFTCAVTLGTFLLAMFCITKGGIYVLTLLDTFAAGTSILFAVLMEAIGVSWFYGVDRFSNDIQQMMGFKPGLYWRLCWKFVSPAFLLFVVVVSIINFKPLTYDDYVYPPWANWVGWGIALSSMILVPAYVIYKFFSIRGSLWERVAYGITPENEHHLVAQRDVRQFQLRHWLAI

Regarding `C1=N[C@H](CC2=Cc3ccccc3CC2)CN1` [Example 2, (4R)-4-(3,4-dihydro-2-naphthylmethyl)-4,5-dihydro-1H-imidazole fumarate], the affinity in experiment [1] corresponds to a Ki of 15.8 nM.

Take `COc1cccc2c1C=C(CC1CNC=N1)CC2.O=C(O)/C=C/C(=O)O` (stereo not drawn) [Example 12, 4-[(8-Methoxy-3,4-dihydro-2-naphthyl)methyl]-4,5-dihydro-1H-imidazole fumarate]: the pKi in experiment [2] is 7.8.

Turning to `C1=NCC(CC2Cc3ccccc3C2)N1` (stereo not drawn) [Example 22, 4-(2,3-Dihydro-1H-inden-2-ylmethyl)-4,5-dihydro-1H-imidazole hemi-fumarate], the pKi in experiment [3] amounted to 8.8.
